# Several values for one entry are separate records, joined by “and”; a condition that tells them apart may be missing. Equal values may be shown once. Entries after “also recorded” stand apart in the source; their conditions may differ.
# Columns and labels:
# [1] = Safety after repeated oral administration over four weeks (Example 3); assay type: in vivo, cats
# Description: The animals were allocated to 3 groups, 4 animals per group. […] The bottles with the test/control article looked identical with the exception of the animal no. in order to achieve blinding.
# Blood samples for haematology and clinical chemistry were collected from the animals on days-1 (i.e. prior to the first treatment) and again on days 3, 7, 14, 28. Body weights were measured weekly and electrocardiography recording were made on days-1, 14, 21 and 28. A detailed physical examination including determination of rectal temperature and respiratory rate was carried out on days-1, 7, 14, 22 and 28. Systolic blood pressure (once daily) and heart rate (twice daily) were determined five days per week beginning prior to treatment until necropsy. The palatability of the administered article was assessed at various time points throughout treatment using a scoring system. On day 28 of the study, all animals were subjected to necropsy and stomach and kidneys were examined histopathologically. Relevant parameters were analysed using appropriate statistical procedures.
# [2] = Pharmacokinetics and absolute bioavailability in plasma after single oral or intravenous administration (Example 1); conditions: for AUC(0-inf) / half-life / t max / V/f or V / t ½ / AUC 0 → ∞: single dose 1 mg/kg, mean; for half-life: t ½
# Description: Four clinically healthy male and female domestic short hair cats (HsdCpb: CADS) with a body weight range of 2.6-4.2 kg were used in this study. The animals were randomly allocated to 2 groups, 2 animals per group.
# Blood samples were drawn at 0 h (i.e. prior to treatment), 5 (after i. v. injection only), 15, 30 and 60 min as well as 2, 4, 8, 24, 72 and 96 h after each treatment. Clinical observations were also conducted at these time points. Plasma samples were sent to the analytical laboratory and analysed there using a validated method. The plasma levels measured in each animal were subjected to various pharmacokinetic calculations.
# [3] = human patients, 160 mg daily; cited from earlier work
# [4] = system: angiotensin II receptor 1 (AT-1); test: Angiotensin II induced increase in diastolic blood pressure in laboratory cats after oral dosing; assay type: in vivo; conditions: approximately 24 hours after the last oral dosing, target dose vs Placebo
# [5] = system: angiotensin II receptor 1 (AT-1); test: Escalating intravenous dose: blood pressure response of anaesthetised cats after angiotensin II (Example 2); assay type: in vivo
# Description: Four clinically healthy adult male and female domestic short hair cats (HsdCpb: CADS) with a body weight range of 2.5-3.5 kg were used in this study. The animals were anaesthetised with sodium pentobarbital and anaesthesia was sustained by continuous infusion of diluted anaesthetic. A catheter was inserted into a carotid artery and connected to a pressure transducer for registration of the arterial pressure. […] The systolic and diastolic blood pressure [mmHg] in the carotid artery were recorded and analysed at discrete intervals as described below.
# At first, the diastolic blood pressure was registered 6 times every 5 minutes. The mean of these 6 measurements were set as the baseline blood pressure. Then two bolus injections of A2 were administered at a dose of 0.1 μg/kg in an interval of 10 min. The maximum increase in diastolic blood pressure obtained from the second A2-bolus relative to the baseline blood pressure was taken as the control angiotensin II-blood pressure response (i.e. reference value).
# Thirty minutes later the diastolic blood pressure was recorded, immediately followed by bolus injection of A2 at a dose of 0.1 μg/kg and the maximum increase in diastolic blood pressure was obtained. This procedure was to be repeated accordingly until the intended endpoint of the experiment (i.e. an A2-pressure response ≤10% of the control A2-pressure response corresponding to ≥90% inhibition) was reached. […] At the end of the experiment, the anaesthetised animals were euthanized with an overdose of sodium pentobarbital.
# [6] = oral once daily days 0 to 27, 1 and 3 mg/kg
# [7] = both, domestic short hair (HsdCpb: CADS), plasma, po, 1 mg/kg
structure (smiles),measurement,setting,value
"CCCc1nc2c(C)cc(-c3nc4ccccc4n3C)cc2n1Cc1ccc(-c2ccccc2C(=O)O)cc1 [telmisartan, 4′-[2-n-propyl-4-methyl-6-(1-methylbenzimidazol-2-yl)-benzimidazol-1-ylmethyl]-biphenyl-2-carboxylic acid]",histopathology of stomach and kidneys,[1]; day 28,no histopathological findings considered to be associated with the treatment
same,necropsy findings,[1]; day 28,No animal showed any specific finding
same,"systolic blood pressure, changes from baseline vs controls",[1]; groups II (1 mg/kg) and III (3 mg/kg),did not reveal significant differences
same,systolic blood pressure vs control group I,"[1]; groups II (1 mg/kg) and III (3 mg/kg), single occasions after initiation of treatment",significantly lower
same,"systolic blood pressure, course of the mean values over time","[1]; groups II and III vs group I, from day 20 onwards / towards the end of the study",tendency of a slight reduction
same,"body weights, rectal temperature, respiratory and heart rates",[1]; [6],No significant differences
same,clinical findings,[1]; [6],No clinical findings clearly attributable to the treatment
same,urinalysis,[1]; [6],not provide evidence of a treatment effect
same,physical and ECG examinations,"[1]; oral once daily days 0 to 27, 1 and 3 mg/kg, all time points",did not reveal treatment-related findings
same,haematological and clinical chemistry parameters including differential leukocyte count,"[1]; oral once daily days 0 to 27, 1 and 3 mg/kg, vs concurrent controls",No treatment-related differences
same,plasma concentrations at 24 h,"[2]; 24 h after both routes, orally and intravenously",No quantifiable plasma concentrations
same,time until which mean plasma concentrations increased,[2]; after oral administration,15 to 30 min
same,bioavailability,"[2]; both, domestic short hair (HsdCpb: CADS), cat, plasma, po, 1 mg/kg, absolute bioavailability after oral administration, oral 1 mg/kg",33%
same,MRT,"[2]; both, domestic short hair (HsdCpb: CADS), plasma, iv, 1 mg/kg",0.789 h
same,AUC(0-inf),"[2]; both, domestic short hair (HsdCpb: CADS), plasma, iv, 1 mg/kg, i.v., first AUC line (r5)",385 ng·h/mL
same,AUC(0-inf),"[2]; both, domestic short hair (HsdCpb: CADS), plasma, iv, 1 mg/kg, i.v., second AUC line (r7)",376 ng·h/mL
same,half-life,"[2]; both, domestic short hair (HsdCpb: CADS), plasma, iv, 1 mg/kg, i.v.",2.25 h
same,CL/F,[2]; [7],172 mL/min/kg
same,Cmax,[2]; [7],138 ng/mL
same,MRT,[2]; [7],1.97 h
same,AUC(0-inf),"[2]; both, domestic short hair (HsdCpb: CADS), plasma, po, 1 mg/kg, oral, first AUC line (r5)",150 ng·h/mL
same,AUC(0-inf),"[2]; both, domestic short hair (HsdCpb: CADS), plasma, po, 1 mg/kg, oral, second AUC line (r7)",139 ng·h/mL
same,bioavailability,"[2]; both, domestic short hair (HsdCpb: CADS), plasma, po, 1 mg/kg, absolute bioavailability after oral administration, oral 1 mg/kg",33.6%
same,bioavailability,"[2]; both, domestic short hair (HsdCpb: CADS), plasma, po, 1 mg/kg, absolute bioavailability, point estimate, for AUC 0→t, oral vs i.v. 1 mg/kg",31.6%
same,bioavailability,"[2]; both, domestic short hair (HsdCpb: CADS), plasma, po, 1 mg/kg, absolute bioavailability, point estimate, for AUC 0→∞, oral vs i.v. 1 mg/kg",33.6%
same,t max,"[2]; both, domestic short hair (HsdCpb: CADS), plasma, po, 1 mg/kg, t max, oral",0.44 h
same,half-life,"[2]; both, domestic short hair (HsdCpb: CADS), plasma, po, 1 mg/kg, oral",2.17 h
same,bioavailability,"[2]; domestic short hair (HsdCpb: CADS), plasma, po, 1 mg/kg, bioavailability, individual data, animal no. 101, for AUC 0→∞",11.6%
same,bioavailability,"[2]; domestic short hair (HsdCpb: CADS), plasma, po, 1 mg/kg, bioavailability, individual data, the other animals, for AUC 0→∞",38.7 to 58.2%
same,clinical signs,"[2]; entire course of the study, single oral or i.v. 1 mg/kg",No specific clinical signs
same,V/f or V,"[2]; i.v., 1 mg/kg",8.8 L/kg and 8.856 L/kg
same,t ½,"[2]; i.v., 1 mg/kg",2.252 h
same,AUC 0 → ∞,"[2]; i.v., first AUC line (r5), 1 mg/kg",384.751 ng·h/mL
same,tolerability,"[2]; in vivo, 1 mg/kg",well tolerated
same,V/f or V,"[2]; oral, 1 mg/kg",20.4 L/kg and 20.453 L/kg
same,t max,"[2]; oral, 1 mg/kg",0.438 h
same,t ½,"[2]; oral, 1 mg/kg",2.169 h
same,AUC 0 → ∞,"[2]; oral, first AUC line (r5), 1 mg/kg",150.426 ng·h/mL
same,plasma level (Cmax±SD),[3],about 2800±2400 ng/ml
same,diastolic blood pressure responses to increasing intravenous doses of Angiotensin II,[4],significantly reduced
same,effect of further dose escalation,[5]; all 4 animals,did not produce markedly higher effects; also recorded: did not produce an appropriate dose response relationship
same,maximal inhibition of the blood pressure increase relative to the control angiotensin II-blood pressure response,"[5]; animal no. 101, reached at cumulative i.v. dose of 0.05 mg/kg",50%
same,inhibition of the angiotensin II diastolic blood pressure response,"[5]; animal no. 102, after the 1st i.v. dose of 0.04 mg/kg",73%
same,inhibition of the angiotensin II diastolic blood pressure response,"[5]; animal no. 151, cumulative i.v. dose of 0.04 mg/kg",73%
same,inhibition of the angiotensin II diastolic blood pressure response,"[5]; animal no. 152, after the 1st i.v. dose of 0.02 mg/kg",73%
same,maximal inhibition of the blood pressure increase relative to the control angiotensin II-blood pressure response,"[5]; animal nos. 102, 151, 152, final cumulative i.v. dose 0.34-0.4 mg/kg",80-95%
same,inhibition of the angiotensin II diastolic blood pressure response,"[5]; cumulative i.v. dose of 0.04 mg/kg, 3 of 4 animals",73%
same,inhibition of the blood pressure response,"[5]; doses of less than 0.05 mg per kg body weight, majority of the tested cats",about 75%
same,effect on diastolic blood pressure increase after angiotensin II,"[5]; escalating intravenous doses, anaesthetised cats",led to an inhibition of the diastolic blood pressure increase
same,endpoint of a 90% inhibition of the A2-pressure response,[5]; several consecutive escalating i.v. doses,could not be reached in 3 of 4 animals
